The record followed here is patent publication US20090118363A1, “SESAMIN-CLASS COMPOUND-CONTAINING FOODS OR BEVERAGES FOR ANIMALS” (priority 2006, published 2009).

This series is described as follows: Test of dissolving sesamin-class compounds into fats and oils (solubility). The format is physicochemical. On the procedure:
Solubility of sesamin-class compounds to various fats and oils was determined. Sesamin, episesamin, and a mixture of sesamin and episesamin, sesamin:episesamin=51.1:48.2 (Takemoto Oil and Fat Co., Ltd.), were used as the sesamin-class compounds. The sesamin and the episesamin were prepared by isolating them from the mixture and purifying them. The respective sesamin-class compounds were dissolved into five different kinds of fats and oils, 100 g each, shown in Table 1 to determine a limit amount (solubility) of the respective sesamin-class compounds that can be dissolved completely. It is understood from Table 1 that the sesamin, the episesamin, and the mixture of the sesamin and the episesamin have different solubilities, and that the solubility varies in a manner that depends on the types of the fats and oils.

Take `c1cc2c(cc1[C@H]1OC[C@H]3[C@@H]1CO[C@@H]3c1ccc3c(c1)OCO3)OCO2` [SESAMIN, sesamin]: the “Solubility in fats and oils: DG” value came out at 1.25%; the “Solubility in fats and oils: MCT-1” value was determined as 4.0%; the “Solubility in fats and oils: MCT-2” value is recorded as 2.0%; the “Solubility in fats and oils: olive oil” value is 0.75%. Besides, the “Solubility in fats and oils: wheatgerm oil” value was determined as 0.75%.
Take `c1cc2c(cc1[C@H]1OC[C@H]3[C@@H]1CO[C@@H]3c1ccc3c(c1)OCO3)OCO2` [EPISESAMIN, episesamin]: the “Solubility in fats and oils: DG” value was found to be 1.0%; the “Solubility in fats and oils: MCT-1” value came out at 2.5%; the “Solubility in fats and oils: MCT-2” value is on record as 2.5%; the “Solubility in fats and oils: olive oil” value was found to be 0.5%. The “Solubility in fats and oils: wheatgerm oil” value came to 0.75%.
